Results reported in patent publication US20060063786A1 (priority 2002, published 2006).
Read-outs that look alike come from different tables or passages of the source.

Tested on: Pyricularia oryzae
Assay type: in vivo
Conditions: individual active compound, protective, inoculated next day, rated after 6 days

CNC(=O)/C(=N/OC)c1ccccc1CO/N=C(C)/C(=N/OC)C(/C)=N/OC [I (orysastrobin), 2-[2-(2,3-bismethoxyimino-1-methylbutylideneamino-oxymethyl)phenyl]-2-methoxyimino-N-methylacetamide]
Efficacy in % of the untreated control (0.25 ppm in the spray liquor): 0 % of the untreated control | Efficacy in % of the untreated control (4 ppm in the spray liquor): 28 % of the untreated control

CC1CCN(c2c(-c3c(F)cccc3Cl)c(Cl)nc3ncnn23)CC1 [A]
Efficacy in % of the untreated control (1 ppm in the spray liquor): 0 % of the untreated control | Efficacy in % of the untreated control (4 ppm in the spray liquor): 28 % of the untreated control

CC1CCN(c2c(-c3c(F)cc(F)cc3F)c(Cl)nc3ncnn23)CC1 [II, 5-chloro-7-(4-methylpiperidin-1-yl)-6-(2,4,6-trifluorophenyl)-[1,2,4]triazolo[1,5-a]pyrimidine]
Efficacy in % of the untreated control (1 ppm in the spray liquor): 3 % of the untreated control | Efficacy in % of the untreated control (4 ppm in the spray liquor): 52 % of the untreated control

C[C@H](Nc1c(-c2c(F)cc(F)cc2F)c(Cl)nc2ncnn12)C(F)(F)F [B]
Efficacy in % of the untreated control (1 ppm in the spray liquor): 28 % of the untreated control | Efficacy in % of the untreated control (4 ppm in the spray liquor): 52 % of the untreated control
